These results are taken from patent US10745382B2 (BRISTOL-MYERS SQUIBB COMPANY, priority 2015, dated 2020).

For this test, the target named is T1, PD-1/PD-L1 (Homo sapiens, UniProt Q9NZQ7).
T1 construct: made in house; host or cells: HEK293T
T1 sequence (Q9NZQ7 with tags, fused parts or gaps): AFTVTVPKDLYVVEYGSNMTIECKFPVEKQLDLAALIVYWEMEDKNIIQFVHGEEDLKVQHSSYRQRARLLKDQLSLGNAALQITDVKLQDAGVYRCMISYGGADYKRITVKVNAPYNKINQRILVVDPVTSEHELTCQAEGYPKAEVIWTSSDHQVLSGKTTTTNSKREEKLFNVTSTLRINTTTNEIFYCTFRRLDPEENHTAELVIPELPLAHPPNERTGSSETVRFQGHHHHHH
In words: PD-1/PD-L1 Homogenous Time-Resolved Fluorescence (HTRF) binding assay. The settings on record: PD-L1-His 10 nM, PD-1-Ig 20 nM; value given as range class; read-out: Range or IC50. The procedure, abridged:
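Compounds are tested for blocking the PD-1/PD-L1 interaction in dPBS supplemented with 0.1% BSA and 0.05% (v/v) Tween-20. Tagged proteins are detected with Eu-cryptate anti-Ig and APC anti-His at 1 and 20 nM final.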
A general note: In TR-FRET formats the signal depends on donor and acceptor labels being close together.
Regarding `C=CC(=O)NCCNCc1cc(Cl)c(OCc2cccc(-c3cccc(OCCCN4CC[C@@H](O)C4)c3C)c2C)cc1OCc1cncc(S(C)(=O)=O)c1` [Example 1034, (R)—N-(2-((5-chloro-4-((3′-(3-(3-hydroxypyrrolidin-1-yl)propoxy)-2,2′-dimethyl-[1,1′-biphenyl]-3-yl)methoxy)-2-((5-(methylsulfonyl)pyridin-3-yl)methoxy)benzyl)amino)ethyl)acrylamide], the IC50 – broadly, the concentration at which inhibition is half-maximal – was in the range of 10 to 100 nM.

As for `Cc1c(COc2cc(OCc3cncc(C(N)=O)c3)c(CN[C@H](CO)C(=O)O)cc2Cl)cccc1-c1cccc(OCCCN2CCC(O)(C(=O)O)CC2)c1C` [Example 1035, (R)-1-(3-((3′-((5-((5-carbamoylpyridin-3-yl)methoxy)-4-(((1-carboxy-2-hydroxyethyl)amino)methyl)-2-chlorophenoxy)methyl)-2,2′-dimethyl-[1,1′-biphenyl]-3-yl)oxy)propyl)-4-hydroxypiperidine-4-carboxylic Acid], the 50% inhibitory concentration (IC50) lay in the range of 0.21 to 10 nM.

With `Cc1c(COc2cc(OCc3cncc(C#N)c3)c(CN[C@H](CO)C(=O)O)cc2Cl)cccc1-c1cccc(OCCCN2CCC(O)(C(=O)O)CC2)c1C` [Example 1036, (R)-1-(3-((3′-((4-(((1-carboxy-2-hydroxyethyl)amino)methyl)-2-chloro-5-((5-cyanopyridin-3-yl)methoxy)phenoxy)methyl)-2,2′-dimethyl-[1,1′-biphenyl]-3-yl)oxy)propyl)-4-hydroxypiperidine-4-carboxylic Acid], the IC50 fell in the range of 0.21 to 10 nM.

For `Cc1c(COc2cc(OCc3cncc(C#N)c3)c(CN[C@](C)(CO)C(=O)O)cc2Cl)cccc1-c1cccc(OCCCN2CCC(O)(C(=O)O)CC2)c1C` [Example 1037, (R)-1-(3-((3′-((4-(((2-carboxy-1-hydroxypropan-2-yl)amino)methyl)-2-chloro-5-((5-cyanopyridin-3-yl)methoxy)phenoxy)methyl)-2,2′-dimethyl-[1,1′-biphenyl]-3-yl)oxy)propyl)-4-hydroxypiperidine-4-carboxylic Acid], the concentration for half-maximal inhibition (IC50) fell in the range of 0.21 to 10 nM.

For `COC(=O)C1(O)CCN(CCCOc2cccc(-c3cccc(COc4cc(OCc5cncc(S(C)(=O)=O)c5)c(CN[C@H](CO)C(=O)O)cc4Cl)c3C)c2C)CC1` [Example 1038, (R)-2-((5-chloro-4-((3′-(3-(4-hydroxy-4-(methoxycarbonyl)piperidin-1-yl)propoxy)-2,2′-dimethyl-[1,1′-biphenyl]-3-yl)methoxy)-2-((5-(methylsulfonyl)pyridin-3-yl)methoxy)benzyl)amino)-3-hydroxypropanoic Acid], the concentration for half-maximal inhibition (IC50) lay in the range of 0.21 to 10 nM.

Take `COC(=O)C1(O)CCN(CCCOc2cccc(-c3cccc(COc4cc(OCc5cncc(S(C)(=O)=O)c5)c(CN[C@@](C)(CO)C(=O)O)cc4Cl)c3C)c2C)CC1` [Example 1039, (S)-2-((5-chloro-4-((3′-(3-(4-hydroxy-4-(methoxycarbonyl)piperidin-1-yl)propoxy)-2,2′-dimethyl-[1,1′-biphenyl]-3-yl)methoxy)-2-((5-(methylsulfonyl)pyridin-3-yl)methoxy)benzyl)amino)-3-hydroxy-2-methylpropanoic Acid]: the IC50 lay within 0.21 to 10 nM.

For `Cc1c(COc2cc(OCc3cncc(S(C)(=O)=O)c3)c(CN[C@H](CO)C(=O)O)cc2Cl)cccc1-c1cccc(OCCCN2CCC(O)(C(=O)O)CC2)c1C` [Example 1040, (R)-1-(3-((3′-((4-(((1-carboxy-2-hydroxyethyl)amino)methyl)-2-chloro-5-((5-(methylsulfonyl)pyridin-3-yl)methoxy)phenoxy)methyl)-2,2′-dimethyl-[1,1′-biphenyl]-3-yl)oxy)propyl)-4-hydroxypiperidine-4-carboxylic Acid], the IC50 was in the range of 0.21 to 10 nM.

For `Cc1c(COc2cc(OCc3cncc(S(C)(=O)=O)c3)c(CN[C@@](C)(CO)C(=O)O)cc2Cl)cccc1-c1cccc(OCCCN2CCC(O)(C(=O)O)CC2)c1C` [Example 1041, (S)-1-(3-((3′-((4-(((2-carboxy-1-hydroxypropan-2-yl)amino)methyl)-2-chloro-5-((5-(methylsulfonyl)pyridin-3-yl)methoxy)phenoxy)methyl)-2,2′-dimethyl-[1,1′-biphenyl]-3-yl)oxy)propyl)-4-hydroxypiperidine-4-carboxylic Acid], the IC50 lay in the range of 0.21 to 10 nM.

With `Cc1c(COc2cc(OCc3cncc(C#N)c3)c(CN[C@H](CO)C(=O)O)cc2Cl)cccc1-c1cccc(OC[C@@H]2CCCN3CCCC[C@H]23)c1C` [Example 1042, (R)-2-((5-chloro-2-((5-cyanopyridin-3-yl)methoxy)-4-((2,2′-dimethyl-3′-(((1R,9aR)-octahydro-1H-quinolizin-1-yl)methoxy)-[1,1′-biphenyl]-3-yl)methoxy)benzyl)amino)-3-hydroxypropanoic Acid], the half-inhibitory concentration (IC50) was 0.21 to 10 nM.

With `Cc1c(COc2cc(OCc3cncc(C#N)c3)c(CN3CCCC[C@H]3C(=O)O)cc2Cl)cccc1-c1cccc(OC[C@@H]2CCCN3CCCC[C@H]23)c1C` [Example 1043, (S)-1-(5-chloro-2-((5-cyanopyridin-3-yl)methoxy)-4-((2,2′-dimethyl-3′-(((1R,9aR)-octahydro-1H-quinolizin-1-yl)methoxy)-[1,1′-biphenyl]-3-yl)methoxy)benzyl)piperidine-2-carboxylic Acid], the IC50 fell in the range of 0.21 to 10 nM.

As to `CCOC(=O)C1(CO)CCN(CCCOc2cccc(-c3cccc(COc4cc(OCc5cncc(S(C)(=O)=O)c5)c(CN[C@](C)(CO)C(=O)O)cc4Cl)c3C)c2C)C1` (stereo partly drawn) [Example 1044, (2R)-2-((5-chloro-4-((3′-(3-(3-(ethoxycarbonyl)-3-(hydroxymethyl)pyrrolidin-1-yl)propoxy)-2,2′-dimethyl-[1,1′-biphenyl]-3-yl)methoxy)-2-((5-(methylsulfonyl)pyridin-3-yl)methoxy)benzyl)amino)-3-hydroxy-2-methylpropanoic Acid], the IC50 was in the range of 0.21 to 10 nM.

`CCOC(=O)C1(CO)CCN(CCCOc2cccc(-c3cccc(COc4cc(OCc5cncc(S(C)(=O)=O)c5)c(CN[C@H](CO)C(=O)O)cc4Cl)c3C)c2C)C1` (stereo partly drawn) [Example 1045, (2R)-2-((5-chloro-4-((3′-(3-(3-(ethoxycarbonyl)-3-(hydroxymethyl)pyrrolidin-1-yl)propoxy)-2,2′-dimethyl-[1,1′-biphenyl]-3-yl)methoxy)-2-((5-(methylsulfonyl)pyridin-3-yl)methoxy)benzyl)amino)-3-hydroxypropanoic Acid]: the IC50 fell in the range of 0.21 to 10 nM.

With `COC(=O)C1(O)CCN(CCCOc2cccc(-c3cccc(COc4cc(OCc5cncc(C#N)c5)c(CN[C@](C)(CO)C(=O)O)cc4Cl)c3C)c2C)C1` (stereo partly drawn) [Example 1046, (2R)-2-((5-chloro-2-((5-cyanopyridin-3-yl)methoxy)-4-((3′-(3-(3-hydroxy-3-(methoxycarbonyl)pyrrolidin-1-yl)propoxy)-2,2′-dimethyl-[1,1′-biphenyl]-3-yl)methoxy)benzyl)amino)-3-hydroxy-2-methylpropanoic Acid], the IC50 is 0.21 to 10 nM.

Take `CCOC(=O)C1(CO)CCN(CCCOc2cccc(-c3cccc(COc4cc(OCc5cncc(C#N)c5)c(CN[C@H](CO)C(=O)O)cc4Cl)c3C)c2C)C1` (stereo partly drawn) [Example 1047, (2R)-2-((5-chloro-2-((5-cyanopyridin-3-yl)methoxy)-4-((3′-(3-(3-(ethoxycarbonyl)-3-(hydroxymethyl)pyrrolidin-1-yl)propoxy)-2,2′-dimethyl-[1,1′-biphenyl]-3-yl)methoxy)benzyl)amino)-3-hydroxypropanoic Acid]: the IC50 lay in the range of 0.21 to 10 nM.

Consider `Cc1c(COc2cc(OCc3cncc(S(C)(=O)=O)c3)c(CN[C@](C)(CO)C(=O)O)cc2Cl)cccc1-c1cccc(OCCCN2CCC(CO)(C(=O)O)C2)c1C` (stereo partly drawn) [Example 1048, 1-(3-((3′-((4-((((R)-2-carboxy-1-hydroxypropan-2-yl)amino)methyl)-2-chloro-5-((5-(methylsulfonyl)pyridin-3-yl)methoxy)phenoxy)methyl)-2,2′-dimethyl-[1,1′-biphenyl]-3-yl)oxy)propyl)-3-(hydroxymethyl)pyrrolidine-3-carboxylic Acid], for which the 50% inhibitory concentration (IC50) was in the range of 0.21 to 10 nM.

Regarding `CCOC(=O)C1(CO)CCN(CCCOc2cccc(-c3cccc(COc4cc(OCc5cncc(C#N)c5)c(CN[C@](C)(CO)C(=O)O)cc4Cl)c3C)c2C)C1` (stereo partly drawn) [Example 1049, (2R)-2-((5-chloro-2-((5-cyanopyridin-3-yl)methoxy)-4-((3′-(3-(3-(ethoxycarbonyl)-3-(hydroxymethyl)pyrrolidin-1-yl)propoxy)-2,2′-dimethyl-[1,1′-biphenyl]-3-yl)methoxy)benzyl)amino)-3-hydroxy-2-methylpropanoic Acid], the concentration for half-maximal inhibition (IC50) fell in the range of 0.21 to 10 nM.

Regarding `Cc1c(COc2cc(OCc3cncc(S(C)(=O)=O)c3)c(CN[C@H](CO)C(=O)O)cc2Cl)cccc1-c1cccc(OCCCN2CCC(CO)(C(=O)O)C2)c1C` (stereo partly drawn) [Example 1050, 1-(3-((3′-((4-((((R)-1-carboxy-2-hydroxyethyl)amino)methyl)-2-chloro-5-((5-(methylsulfonyl)pyridin-3-yl)methoxy)phenoxy)methyl)-2,2′-dimethyl-[1,1′-biphenyl]-3-yl)oxy)propyl)-3-(hydroxymethyl)pyrrolidine-3-carboxylic Acid], the half-maximal inhibitory concentration (IC50) was in the range of 0.21 to 10 nM.

Take `Cc1c(COc2cc(OCc3cncc(C#N)c3)c(CN[C@](C)(CO)C(=O)O)cc2Cl)cccc1-c1cccc(OCCCN2CCC(CO)(C(=O)O)C2)c1C` (stereo partly shown) [Example 1051]: the IC50 lay within 0.21 to 10 nM.

For `Cc1c(COc2cc(OCc3cncc(C#N)c3)c(CN[C@H](CO)C(=O)O)cc2Cl)cccc1-c1cccc(OCCCN2CCC(CO)(C(=O)O)C2)c1C` (stereo partly drawn) [Example 1052, 1-(3-((3′-((4-((((R)-1-carboxy-2-hydroxyethyl)amino)methyl)-2-chloro-5-((5-cyanopyridin-3-yl)methoxy)phenoxy)methyl)-2,2′-dimethyl-[1,1′-biphenyl]-3-yl)oxy)propyl)-3-(hydroxymethyl)pyrrolidine-3-carboxylic Acid], the half-maximal inhibitory concentration (IC50) is 0.21 to 10 nM.
